This is an account of results in US6280760A, “Peptide-coated implants and methods for producing same” (Merck Patent Gesellschaft mit beschraenkter Haftung, priority 1997, dated 2001).

In assay [1] the test system is MC3T3 H1 osteoblasts. The assay is described as follows: Adhesion of MC3T3 H1 osteoblasts to PMMA moulded articles coated with acrylate RGD peptides. Format: cell-based, mouse. How it is done:
For the covalent coupling of these peptides to polymerized PMMA (polymethyl methacrylate) surfaces, appropriate shaped articles of differing porosity (diameter: 10 mm; height: 2 mm) were prepared from three different PMMA components.
Bone cement based on PMMA (Merck KGaA, Germany, Licence No. 5181.00.00) corresponding to the product description (40 g of powder+20 ml of liquid).
10 g of PMMA/PHEMA (polyhydroxyethyl methacrylate) granules, particle size 0.5-0.6 mm (Biomet) were mixed with 1.3 ml of an HEMA solution (68.6% HEMA, 29.4% TEGMA [triethylene glycol dimethacrylate], 2% tBPB, [tert-butyl peroxybenzoate]) and adhered by means of this to a porous support material.
10 g of PMMA granules (Plex Y7H, Rohm, Germany), particle fraction 0.7-2 mm were mixed with 1.5 ml of a methyl methacrylate (MMA) solution (68.6% MMA, 29.4% TEGMA, 2% tBPB) and adhered by this means to a porous support material.
For the covalent coupling of the acrylate peptides to the prepolymerized PMMA moulded articles, stock solutions of the acrylate peptides 1, 2, 3 and 4 were prepared in a final concentration of 100 μM in each case in DMSO/0.2% camphorquinone (w/v). Then, by dilution with isopropanol/0.2% camphorquinone (w/v), concentration series having final peptide concentrations of 0.1 nM, 1 nM, 10 nM, 100 nM, 1 μM and 10 μM in each case were prepared. The moulded articles were incubated in daylight and at room temperature for 2 hours and then stored at 4° C. in the dry state. Before use, the samples were washed with PBS, pH 7.4, to remove unbound peptides and stored at 4° C. in PBS, pH 7.4, overnight.
By addition of 250 μl/moulded article each of a 5% strength BSA solution in PBS, pH 7.4, and subsequent incubation for 2 hours at room temperature and washing once with PBS, pH 7.4, non-specific cell-binding sites were blocked.
Subsequently, the adhesion of osteoblasts of the MC3T3 H1 line, obtained from the calvaria of neonatal mice (Heermeier et al., 1995, Cells and Materials 5: 309-321) to the above-described peptide-coated surfaces was investigated.
The MC3T3 H1 osteoblasts were inoculated at an inoculation density of 48,000 cells/cm^2, as described above, in Costar 48-well plates, with PMMA moulded articles coated with RGD peptide and then incubated for 1 hour at 37° C., 95% atmospheric humidity and 5% CO2. Cells non-adhered during the experiment were then washed off twice with PBS, pH 7.4.
(§1) The quantification of the adhered cells was carried out indirectly via the activity determination of the cellular enzyme N-acetylhexosaminidase using an appropriate standard curve according to the method of Landegren (1984, J. Immunol. Methods, 67: 379-388).

Assay [2] deals with MC3T3 H1 osteoblasts. The assay is described as follows: Adhesion of MC3T3 H1 osteoblasts to BSA-pretreated polystyrene surfaces coated with thiol-RGD peptides via sulpho-SMPB. Type of assay: cell-based, mouse. Particulars: for stimulation of the adhesion of cultured mouse MC3T3 H1 osteoblasts: BSA-pretreated polystyrene, peptide coupled via sulpho-SMPB, FIG. 2; for maximum adsorption rate (of the inoculated cells): MC3T3 H1 mouse osteoblasts, 48,000 cells/cm^2, 1 hour. How it is done:
(§2) The covalent coupling of the peptides according to the invention with sulphosuccinimidyl 4-(p-maleimidophenyl)butyrate (sulpho-SMPB) to culture surfaces of polystyrene precoated with bovine serum albumin (BSA) was accomplished following the established processes of Singer et al., 1987, J. Cell. Biol. 104: 573, or of Ruoslahti et al. (1982, Methods. Enzymol., 82: 803-831).
To do this, 48-well plates (Costar, "non-tissue culture treated", Art. No. 3547) were each coated with 250 μl of PBS (phosphate-buffered saline), pH=8.3, 2% BSA, per well and incubated overnight at room temperature in order to generate a BSA layer on the polystyrene. The plates were then washed with 250 μl of PBS, pH=8.3, per well and incubated at room temperature for 1 hour with 250 μl each of a solution containing 100 μg/ml of SMPB in PBS, pH 8.3. Washing of the wells was then carried out three times using 250 μl of PBS, pH 8.3, each time. For the preparation of the coating solutions, the appropriate thiol-RGD peptide was prepared in the following final concentrations in PBS, pH 8.3: 1 nM, 10 nM, 100 nM, 1 μM, 10 μM, 100 μM and 1 mM. After addition of 250 μl each of coating solution/well, the plates were incubated at room temperature overnight and then washed three times with PBS, pH 8.3. By addition of 250 μl each of a 5% strength BSA solution in PBS, pH 7.4, subsequent incubation for 2 hours at room temperature and washing with PBS, pH 7.4, non-specific cell-binding sites were blocked. Polystyrene surfaces, which from the coating were treated with a 5% strength BSA solution identically to the positive samples, functioned as negative coating controls. The adhesion of four cell cultures which were obtained from three different species was then investigated on the abovementioned surfaces coated with RGD peptide:
osteoblast cell line MC3T3 H1, obtained from the calvaria of neonatal mice (Heermeier et al., 1995, Cells and Materials, 5: 309-321), and
The cell species described were inoculated with an inoculation density of 48,000 cells/cm^2 into, as described above, Costar-48 well plates coated with RGD peptide, and then incubated for 1 hour at 37° C., 95% atmospheric humidity and 5% CO2. Cells unadhered during the experiment were then washed off twice with PBS, pH 7.4.
as §1

Assay [3] deals with primary human osteoprogenitor cells. The assay is described as follows: Adhesion of primary human osteoprogenitor cells to BSA-pretreated polystyrene surfaces coated with thiol-RGD peptides via sulpho-SMPB. Particulars: 48,000 cells/cm^2, 1 hour. Format: cell-based. The method, then:
as §2
(§3) To do this, 48-well plates (Costar, "non-tissue culture treated", Art. No. 3547) were each coated with 250 μl of PBS (phosphate-buffered saline), pH=8.3, 2% BSA, per well and incubated overnight at room temperature in order to generate a BSA layer on the polystyrene. The plates were then washed with 250 μl of PBS, pH=8.3, per well and incubated at room temperature for 1 hour with 250 μl each of a solution containing 100 μg/ml of SMPB in PBS, pH 8.3. Washing of the wells was then carried out three times using 250 μl of PBS, pH 8.3, each time. For the preparation of the coating solutions, the appropriate thiol-RGD peptide was prepared in the following final concentrations in PBS, pH 8.3: 1 nM, 10 nM, 100 nM, 1 μM, 10 μM, 100 μM and 1 mM. […]
as §1

Assay [4] relates to primary human osteoblasts. The assay is described as follows: Adhesion of primary human osteoblasts to BSA-pretreated polystyrene surfaces coated with thiol-RGD peptides via sulpho-SMPB. Particulars: 48,000 cells/cm^2, 1 hour. Format: cell-based. The method, then:
as §2, §3, §1

The subject of the next assay is primary rat osteoblasts. The assay is described as follows: Adhesion of primary rat osteoblasts to BSA-pretreated polystyrene surfaces coated with thiol-RGD peptides via sulpho-SMPB. Type of assay: cell-based. Particulars: 48,000 cells/cm^2, 1 hour. The method, then:
as §2, §3, §1

For the next assay, the system named is osteoblast cultures. The assay is described as follows: Adhesion of the different osteoblast cell species to thiolpeptide-coated BSA-polystyrene surfaces (statements over all cultures). Type of assay: cell-based, mouse, human, rat. Particulars: all osteoblast cultures employed. How it is done: as §2, §3, §1
Assay [5] deals with human melanoma cell line M21L. As to the kind of experiment: Adhesion of alphav beta3-/alphav beta5-negative control cells M21L to thiolpeptide-coated BSA-polystyrene surfaces. Format: cell-based. Particulars: BSA-pretreated polystyrene coated with thiolpeptide. The method, then: as §2, §3, §1

For “cyclo(RGDf[acrylic-ahx-tEG-tEGK]) [acrylate peptide 4]”, the “cell adsorption rates increased in comparison with uncoated surfaces” value in the assay with MC3T3 H1 osteoblasts [1] (bone cement shaped articles, FIG. 8) is 5-15 fold; with MC3T3 H1 osteoblasts [1] (porous PMMA/PHEMA granule shaped articles, FIG. 9) it was 2-5 fold; in the assay on MC3T3 H1 osteoblasts [1] (porous Plex Y7H granule shaped articles, FIG. 10) it was 2-3 fold. Also, the maximal adsorption rates in the assay with MC3T3 H1 osteoblasts [1] (different PMMA moulded articles, 48,000 cells/cm^2, 1 hour) is reported as 80-100%. Also, the EC50 in the assay with MC3T3 H1 osteoblasts [1] (different PMMA moulded articles, read-out: half-maximal cell bindings, RGD peptide concentration in the coating solution) fell in the range of 0.001 to 10 µM.

On to “cyclo-RGDfK NH--CO--CH2 --CH2 --CO--NH--CH2 --CH2 --S-- (sulpho-SMPB) [thiolpeptide 2-(sulpho-SMPB) derivative]”, for which the “stimulation of the adhesion of cultured mouse MC3T3 H1 osteoblasts” value (“stimulation” for short) in the assay on MC3T3 H1 osteoblasts [2] was “strong and dose-dependent stimulation”. Moreover, the “maximum adsorption rate (of the inoculated cells)” value was 90-100% in the assay on MC3T3 H1 osteoblasts [2], “about 80%” in assay [3], “about 80%” in assay [4] and “about 70%” in the assay on primary rat osteoblasts. Also, the “cell adsorption rates raised compared with 5% BSA-coated surfaces” value in the assay with osteoblast cultures is on record as 20-40 fold. In addition, the “cell adhesion of alphav beta3-/alphav beta5-negative control cells (M21L)” value in assay [5] is recorded as “do not show any significant cell adhesion”.

Take “cyclo-RGDfK NH--CO--CH2 --CH2 --S-- (sulpho-SMPB) [thiolpeptide 1-(sulpho-SMPB) derivative]”: the “stimulation” value in the assay with MC3T3 H1 osteoblasts [2] was “strong and dose-dependent stimulation”. In addition, the “maximum adsorption rate (of the inoculated cells)” value in the assay on MC3T3 H1 osteoblasts [2] is reported as 90-100%; in assay [3] it was “about 80%”; in assay [4], “about 80%”; with primary rat osteoblasts, “about 70%”. Further, the “cell adsorption rates raised compared with 5% BSA-coated surfaces” value with osteoblast cultures is 20-40 fold. Further, the “cell adhesion of alphav beta3-/alphav beta5-negative control cells (M21L)” value in assay [5] is “do not show any significant cell adhesion”.

In the case of “cyclo-RGDvE CO--NH--CH2 --CH2 --CH2 --CH2 --CH2 --CO--NH--CH2 --CH2 --S-- (sulpho SMPB) [thiolpeptide 3-(sulfo-SMPB), reference compound]”, in the assay on MC3T3 H1 osteoblasts [2], the “stimulation” value is recorded as “markedly weaker effect”.

In the case of “cyclo-RβADfK-NH--CO--CH2 --CH2 --S-- (sulpho-SMPB) [thiolpeptide control, reference compound]”, the “stimulation” value with MC3T3 H1 osteoblasts [2] is recorded as “no significant effect”.
